This is an account of results in PMC12210405, “Identification of chemical scaffolds for targeting ubiquitin-specific protease 11 (USP11) through high-throughput virtual screening” (Journal of Enzyme Inhibition and Medicinal Chemistry, 2025).

The inhibition is the change of the read-out against control, counted positive when it falls. Usually IC50 stands for the concentration that inhibits the measured activity by half. The Kd is the concentration at which binding is half-saturated. A word on the kon: it is a measure of how fast the partners come together.

Test [1] concerns the target T1, GST-USP11 (Homo sapiens, UniProt P51784).
T1 construct: The plasmids containing the intact USP11 gene were introduced into E. coli BL21-CodonPlus (DE3); made in house; host or cells: E. coli BL21-CodonPlus (DE3)
The test is described as follows: Fluorescence-based deubiquitinating enzyme activity assay (Ub-AMC fluorogenic substrate). Format: biochemical. Conditions: for inhibition at 25 µM: read-out: Percent inhibition of USP11. The text has this: The deubiquitinating enzyme (DUB) activity of USP11 was monitored using Ubiquitin AMC (Ub-AMC) (#U-550–050, R&D Systems, Minneapolis, MN, USA) as a fluorogenic substrate. […] USP11 DUB activity of vehicle control or each compound group was quantified by calculating the area under curve (AUC) using Prism 9 software (GraphPad, Boston, MA, USA).
Using a -fluorogenic substrate assay with ubiquitin 7-amido-4-methylcoumarin (Ub-AMC), we tested varying concentrations of both the protein and the substrate. […] Hits were defined as compounds that inhibited enzyme activity by more than 40%, as determined by fluorescence intensity at the 90-min endpoint.

The test system of the next test is USP15. The following applies: cited from earlier work.
In test [2] the target is T1, GST-USP11. The test is described as follows: Biolayer interferometry (BLI) assay. Format: binding. The protocol: The binding affinities of tested compounds for USP11 were determined using BRAND® microplates (#BR781608, Merck, Darmstadt, Germany) and an Octet® R8 system (Sartorius AG, Göttingen, Germany). Octet GST Biosensors (#18–5096, Sartorius AG, Göttingen, Germany) captured with purified GST-USP11 (50 μg/ml) or without proteins were used as ligand sensors or reference sensors, respectively. For binding kinetic measurements, the association and dissociation of tested compounds (3.125–100 μM) in assay buffer (PBS, 0.02% Tween 20, 2% DMSO) were monitored at 25 °C with 1,000 rpm stirring for 90 s. For accurate baseline, wells containing assay buffer only were used as reference wells. All data were analysed by Octet BLI analysis software version 12.2 (Sartorius AG, Göttingen, Germany). The binding graphs were obtained using a double reference subtraction protocol and equilibrium dissociation constant (KD) values were calculated from the ratio of the dissociation rate constant (Kdis) to the association rate constant (Kon).
On the technique in general: In BLI a coated tip is dipped into the sample, and binding shifts an interference pattern.

[3] abbreviates: compound 25 µM, 90-min endpoint, Ub-AMC.

T1 sequence (P51784 whole entry): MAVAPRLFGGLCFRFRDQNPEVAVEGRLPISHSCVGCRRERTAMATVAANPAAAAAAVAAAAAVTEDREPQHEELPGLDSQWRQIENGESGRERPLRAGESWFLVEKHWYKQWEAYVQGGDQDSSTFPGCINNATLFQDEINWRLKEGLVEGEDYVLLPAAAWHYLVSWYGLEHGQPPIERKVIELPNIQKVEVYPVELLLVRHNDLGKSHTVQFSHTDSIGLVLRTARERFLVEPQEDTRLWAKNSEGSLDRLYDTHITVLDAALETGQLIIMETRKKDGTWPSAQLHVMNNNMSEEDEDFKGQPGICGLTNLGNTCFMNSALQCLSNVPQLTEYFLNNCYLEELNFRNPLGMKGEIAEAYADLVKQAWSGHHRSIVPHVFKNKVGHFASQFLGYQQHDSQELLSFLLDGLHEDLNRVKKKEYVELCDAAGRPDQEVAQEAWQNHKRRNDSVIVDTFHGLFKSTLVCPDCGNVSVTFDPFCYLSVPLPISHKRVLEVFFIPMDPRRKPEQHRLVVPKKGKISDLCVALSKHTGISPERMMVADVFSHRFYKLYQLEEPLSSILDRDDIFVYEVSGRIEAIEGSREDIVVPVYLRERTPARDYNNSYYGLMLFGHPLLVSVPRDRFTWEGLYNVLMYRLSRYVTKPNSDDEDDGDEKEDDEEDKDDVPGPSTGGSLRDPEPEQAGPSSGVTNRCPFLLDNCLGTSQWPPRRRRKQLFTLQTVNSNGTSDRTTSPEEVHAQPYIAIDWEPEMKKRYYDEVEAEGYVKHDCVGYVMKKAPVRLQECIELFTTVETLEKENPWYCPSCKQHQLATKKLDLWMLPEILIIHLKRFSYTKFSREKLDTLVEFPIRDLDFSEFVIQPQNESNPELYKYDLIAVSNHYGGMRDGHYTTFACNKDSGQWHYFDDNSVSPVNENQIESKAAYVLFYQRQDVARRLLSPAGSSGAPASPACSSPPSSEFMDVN

As to `N#CC1CCCN1C(=O)CNC1CCCN(c2ccc([N+](=O)[O-])c3nonc23)C1` (centres unmarked) [Compound 18], the inhibition at 25 µM at GST-USP11 [1] (setting [3]) was 55.8%.

As for `O=[N+]([O-])c1ccc(N2CCCC2)c2nonc12` [Compound 18a], at GST-USP11 [1] (setting [3]), the inhibition at 25 µM was determined as 15%.

Regarding `O=[N+]([O-])c1ccc(N2CCCCC2)c2nonc12` [Compound 18b], the inhibition at 25 µM on GST-USP11 [1] (setting [3]) was 3.3%.

Consider `O=[N+]([O-])c1ccc(N2CCCCCC2)c2nonc12` [Compound 18c], for which the inhibition at 25 µM on GST-USP11 [1] (setting [3]) was found to be 36.9%. `O=[N+]([O-])c1c(N2CCCCC2)cc(N2CCCCC2)c2nonc12` [Compound 18d]: the inhibition at 25 µM at GST-USP11 [1] (setting [3]) worked out at 27.9%. Take `NC1CCC(Nc2ccc([N+](=O)[O-])c3nonc23)CC1` (centres unmarked) [Compound 18e]: on GST-USP11 [1] (setting [3]), the inhibition at 25 µM was 64.8%. As for `N#CC1CCCN1C(=O)CNC1CCC(Nc2ccc([N+](=O)[O-])c3nonc23)CC1` (centres unmarked) [Compound 18f], at GST-USP11 [1] (setting [3]), the inhibition at 25 µM turned out to be 23.8%.

Consider `N#CC1CC=NN1C(=O)CNC1CCC(Nc2ccc([N+](=O)[O-])c3nonc23)CC1` (centres unmarked) [Compound 18g], for which the inhibition at 25 µM on GST-USP11 [1] (setting [3]) came to 70.9%. As for `N#CC1CCCN1C(=O)CNCCN1CCN(c2ccc([N+](=O)[O-])c3nonc23)CC1` (centres unmarked) [Compound 18h], the inhibition at 25 µM on GST-USP11 [1] (setting [3]) came to 7.89%. Still for that read-out and setting: to `O=C(CCc1ccc(F)cc1)N/N=C/c1ccc(O)c(O)c1O` [Compound 29] belongs 41.5%; to `CC(CO)C1CCC2C3C(CCC12C)C1(C)CCC(NCCCCN)C[C@@H]1C[C@H]3O` (some centres unmarked) [Compound 57], 44.8%; to `CCCCOc1cc(CN2CCN(c3ccc(NC(=N)c4ccc[nH]4)cc3)CC2)cc(OCCCC)c1O` [Compound 73], 43.9%.

`CCCCCOc1cc(CN2CCN(c3ccc(NC(=N)c4ccc[nH]4)cc3)CC2)cc(OCCCCC)c1O` [Compound 73a] gave a half-inhibitory concentration (IC50) against GST-USP11 [1] (USP11, Figure S6) of 17.5 µM. Further, on GST-USP11 [1] (setting [3]), the inhibition at 25 µM came out at 90.3%. With `CCOc1cc(CN2CCN(c3ccc(NC(=N)c4ccc[nH]4)cc3)CC2)cc(OCC)c1O` [Compound 73b], on GST-USP11 [1] (setting [3]), the inhibition at 25 µM was determined as 38.1%. For `CCOc1cc(/C=C/C(=O)N2CCN(c3ccc(NC(=N)c4ccc[nH]4)cc3)CC2)cc(OCC)c1O` [Compound 73c], on GST-USP11 [1] (setting [3]), the inhibition at 25 µM is 76.8%. Same read-out and setting: to `CCCCCOc1cc(CN2CCN(c3ccc(NC(=N)c4cccs4)cc3)CC2)cc(OCCCCC)c1O` [Compound 73d] belongs 23%; to `CCCCOc1cc(CN2CCN(c3ccc(NC(=N)c4cccs4)cc3)CC2)cc(OCCCC)c1O` [Compound 73e], 23%. As for `CCCCOc1cc(/C=C/C(=O)N2CCN(c3ccc(NC(=N)c4ccc[nH]4)cc3)CC2)cc(OCCCC)c1O` [Compound 73f], on GST-USP11 [1] (USP11, Figure S6), the IC50 is 19.4 µM. The inhibition at 25 µM at GST-USP11 [1] (setting [3]) is 89.9%.

For the compound `NCCNc1ccc(NCCN)c2c1C(=O)c1ccncc1C2=O` [Compound 74a], at GST-USP11 [1] (setting [3]), the inhibition at 25 µM amounted to 58.4%. With `Nc1ccc(O)c2c1C(=O)c1c(cccc1[N+](=O)[O-])C2=O` [Compound 74c], on GST-USP11 [1] (setting [3]), the inhibition at 25 µM turned out to be 38.1%.

With `CCOC(=O)CCNc1ccc(Nc2ccc(C)cc2)c2c1C(=O)c1ccccc1C2=O` [Compound 74d], at GST-USP11 [1] (setting [3]), the inhibition at 25 µM was 0%. In the case of `CN(c1ccc(C=O)cc1)c1cccc2c1C(=O)c1ccccc1C2=O` [Compound 74e], on GST-USP11 [1] (setting [3]), the inhibition at 25 µM came to 16.8%.

In the case of `Nc1ccc(NC(=O)c2ccccc2)c2c1C(=O)c1ccccc1C2=O` [Compound 74f], the inhibition at 25 µM at GST-USP11 [1] (setting [3]) was 7.38%.

Consider `O=C1c2ccccc2C(=O)c2c1cc(N1CCOCC1)cc2N1CCCCC1` [Compound 74g], for which the inhibition at 25 µM on GST-USP11 [1] (setting [3]) came out at 6.51%. Take `O=C1c2c(O)ccc(O)c2C(=O)c2c(NCCNCCO)ccc(NCCNCCO)c21` [Mitoxantrone, mitoxantrone]: in the test with USP15, the “USP15 inhibition in words” value is “also inhibits USP15”. For `CC(C)[C@@H](CC[C@@H](C)[C@H]1CC[C@H]2[C@@H]3[C@H](O)C[C@H]4C[C@@H](NCCCNCCCCN)CC[C@]4(C)[C@H]3CC[C@]12C)OS(=O)(=O)O` [Squalamine, squalamine], at GST-USP11 [1] (setting [3]), the “Percent inhibition of USP11” value is recorded as “completely inhibits”. In addition, the IC50 at GST-USP11 [1] (recombinant USP11) was 8.29 µM. Moreover, on GST-USP11 [2], the dissociation constant (Kd) came to 459 µM. The kon on GST-USP11 [2] (Figure 3c) was determined as 1380 M⁻¹ s⁻¹. Further, at GST-USP11 [2] (Figure 3c, read-out: Kdis), the koff stood at 0.634 s⁻¹.
